Assay results: US20130053381A1, “2,4-DIOXO-1,4-DIHYDRO-2H-QUINAZOLIN-3-YL-SULFONAMIDE DERIVATIVES” (NOVARTIS AG, priority 2010, published 2013)

biological target: AMPA receptor; assay: [3H]CNQX binding test (AMPA-receptor binding); set-up: species or system rat; conditions: Table 1A parent compounds; AMPA-receptor binding as described for Table 2; read-out: IC50
Description: CNQX binding test (Honore et al. Biochem. Pharmacol. 1989, 38: 3207-3212). This test is performed as follows.
Brain membranes: The animals are sacrificed, the brain removed and homogenized in 10 volumes of ice-cold 10% sucrose with a glass/Teflon homogenizer at positions 5 for 30 sec. The membranes are centrifuged at 1000×g for 10 min, and the supernatant centrifuged at 20,000×g for 15 min. The resulting pellet is resuspended in 10 volumes of cold water with a tissue homogenizer (Brinkman Polytron) at position 5 for 15 sec and the suspension centrifuged at 8000×g for 10 min. The supernatant including the buffy layer is centrifuged at 40,000×g for 20 min, the pellet resuspended in 5 volumes of water and the suspension frozen (20-30 min in dry ice/MeOH) and thawed (water-bath at 37° C.) twice. The suspension is centrifuged at 40,000×g for 20 min, the pellet resuspended in 50 mM HEPES/KOH, pH 7.5, and centrifuged at 40,000×g for 10 min. The final pellet is resuspended with a glass/Teflon homogenizer in 5 volumes of HEPES/KOH buffer; 2 mL aliquots are frozen and stored in liquid nitrogen.
Pretreatment of membranes: Membranes are thawed at 35° C. and once washed with 50 mM HEPES/KOH by centrifugation at 39,000×g for 10 min. The final pellet is resuspended with a glass/Teflon homogenizer in the same buffer.
Radioligand binding assay: It is performed using 96-well microtiterplates in a volume of 0.3 mL of 50 mM HEPES/KOH, pH 7.2, 100 μg membrane protein, 5 nM [^3H]-CNQX (NEN) and the compound to be tested. Incubation is performed at 4° C. for 40 min and the reaction is terminated by centrifugation (Sigma 4K10) at 3700×g for 30 min. The pellet is washed once with cold buffer and then dissolved in 0.02 mL of the tissue solubilizer Soluene for 20 min. Two hundred μL of the scintillation fluid Microscint 20 (Packard) are added and the radioactivity is counted in a Packard Topcount scintillation counter at an efficiency of 40-45%. Nonspecific binding is defined by 10 μM CNQX. Assays are performed in triplicate.

IC50 [nM] | SMILES
390 | COC(C)c1cc2c(=O)n(NS(C)(=O)=O)c(=O)[nH]c2cc1C(F)(F)F (stereo not shown) [Example 16.0]
350 | CCOC(C)c1cc2c(=O)n(NS(C)(=O)=O)c(=O)[nH]c2cc1C(F)(F)F (stereo not shown) [Example 17.0]
320 | CC(C)OC(C)c1cc2c(=O)n(NS(C)(=O)=O)c(=O)[nH]c2cc1C(F)(F)F (stereo not shown) [Example 18.0]
520 | CCCOC(CC)c1cc2c(=O)n(NS(C)(=O)=O)c(=O)[nH]c2cc1C(F)(F)F (stereo not shown) [Example 19.0]
380 | CCC(OC(C)C)c1cc2c(=O)n(NS(C)(=O)=O)c(=O)[nH]c2cc1C(F)(F)F (stereo not shown) [Example 20.0]
900 | CCOC(C)c1cc2c(=O)n(NS(C)(=O)=O)c(=O)[nH]c2cc1C(F)F (stereo not shown) [Example 21.0]
980 | CCCOC(C)c1cc2c(=O)n(NS(C)(=O)=O)c(=O)[nH]c2cc1C(F)(F)F (stereo not shown) [Example 22.0]
760 | CCCCOC(C)c1cc2c(=O)n(NS(C)(=O)=O)c(=O)[nH]c2cc1C(F)(F)F (stereo not shown) [Example 23.0]

tested on: OF1 mice; assay: Maximal electroshock test (MES Test); assay type: in vivo; conditions: Mus musculus; dose of up to 50 mg/kg, p.o., 1 hour prior to induction of convulsions; read-out: %-Protection
Outline: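 Compound given p.o. (typically 50 mg/kg) 1 h before tonic-clonic convulsions were induced via temporal electrodes (50 Hz, 18 mA, 0.2 s); seizure lasting 3 s or less counted as protection. Read-out is percent protected of five mice per condition; ED50 calculated, blood exposure sampled after shock.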

SMILES | responders at 50 mg/kg [%]
CCn1nccc1-c1cc2c(=O)n(N(C(C)=O)S(C)(=O)=O)c(=O)[nH]c2cc1C(F)(F)F [N-Acetyl-N-[6-(2-ethyl-2H-pyrazol-3-yl)-2,4-dioxo-7-trifluoromethyl-1,4-dihydro-2H-quinazolin-3-yl]-methanesulfonamide] | 0
CCn1nccc1-c1cc2c(=O)n(N(C(C)=O)S(C)(=O)=O)c(=O)[nH]c2cc1C(F)F [N-Acetyl-N-[7-difluoromethyl-6-(2-ethyl-2H-pyrazol-3-yl)-2,4-dioxo-1,4-dihydro-2H-quinazolin-3-yl]-methanesulfonamide] | 0
CCc1cc2[nH]c(=O)n(N(C(C)=O)S(C)(=O)=O)c(=O)c2cc1-c1ccnn1CC [N-Acetyl-N-[7-ethyl-6-(2-ethyl-2H-pyrazol-3-yl)-2,4-dioxo-1,4-dihydro-2H-quinazolin-3-yl]-methanesulfonamide] | 0
CCCC(=O)N(n1c(=O)[nH]c2cc(CC)c(-c3ccnn3CC)cc2c1=O)S(C)(=O)=O [N-Butyryl-N-[7-ethyl-6-(2-ethyl-2H-pyrazol-3-yl)-2,4-dioxo-1,4-dihydro-2H-quinazolin-3-yl]-methanesulfonamide] | 0
CCn1nccc1-c1cc2c(=O)n(N(C(=O)CCSC)S(C)(=O)=O)c(=O)[nH]c2cc1C(F)(F)F [N-[6-(2-Ethyl-2H-pyrazol-3-yl)-2,4-dioxo-7-trifluoromethyl-1,4-dihydro-2H-quinazolin-3-yl]-N-(3-methylsulfanyl-propionyl)-methanesulfonamide] | 0
CCCCC(=O)N(n1c(=O)[nH]c2cc(C(F)(F)F)c(-c3ccnn3CC)cc2c1=O)S(C)(=O)=O [N-[6-(2-Ethyl-2H-pyrazol-3-yl)-2,4-dioxo-7-trifluoromethyl-1,4-dihydro-2H-quinazolin-3-yl]-N-pentanoyl-methanesulfonamide] | 0
CCCCC(=O)N(n1c(=O)[nH]c2cc(C(F)(F)F)c(-c3ccnn3C(C)C)cc2c1=O)S(C)(=O)=O [N-[6-(2-Isopropyl-2H-pyrazol-3-yl)-2,4-dioxo-7-trifluoromethyl-1,4-dihydro-2H-quinazolin-3-yl]-N-pentanoyl-methanesulfonamide] | 0
CCn1nccc1-c1cc2c(=O)n(N(C(=O)C(C)(C)C)S(C)(=O)=O)c(=O)[nH]c2cc1C(F)F [N-[7-Difluoromethyl-6-(2-ethyl-2H-pyrazol-3-yl)-2,4-dioxo-1,4-dihydro-2H-quinazolin-3-yl]-N-(2,2-dimethyl-propionyl)-methanesulfonamide] | 0
CCn1nccc1-c1cc2c(=O)n(N(C(=O)CCSC)S(C)(=O)=O)c(=O)[nH]c2cc1C(F)F [N-[7-Difluoromethyl-6-(2-ethyl-2H-pyrazol-3-yl)-2,4-dioxo-1,4-dihydro-2H-quinazolin-3-yl]-N-(3-methylsulfanyl-propionyl)-methanesulfonamide] | 0
CCCCC(=O)N(n1c(=O)[nH]c2cc(C(F)F)c(-c3ccnn3CC)cc2c1=O)S(C)(=O)=O [N-[7-Difluoromethyl-6-(2-ethyl-2H-pyrazol-3-yl)-2,4-dioxo-1,4-dihydro-2H-quinazolin-3-yl]-N-pentanoyl-methanesulfonamide] | 0
CCC(=O)N(n1c(=O)[nH]c2cc(C(F)F)c(-c3ccnn3CC)cc2c1=O)S(C)(=O)=O [N-[7-Difluoromethyl-6-(2-ethyl-2H-pyrazol-3-yl)-2,4-dioxo-1,4-dihydro-2H-quinazolin-3-yl]-N-propionyl-methanesulfonamide] | 0
CCCCCC(=O)N(n1c(=O)[nH]c2cc(C(F)F)c(-c3ccnn3C(C)C)cc2c1=O)S(C)(=O)=O [N-[7-Difluoromethyl-6-(2-isopropyl-2H-pyrazol-3-yl)-2,4-dioxo-1,4-dihydro-2H-quinazolin-3-yl]-N-hexanoyl-methanesulfonamide] | 0
CC(C)C(=O)N(n1c(=O)[nH]c2cc(C(F)F)c(-c3ccnn3C(C)C)cc2c1=O)S(C)(=O)=O [N-[7-Difluoromethyl-6-(2-isopropyl-2H-pyrazol-3-yl)-2,4-dioxo-1,4-dihydro-2H-quinazolin-3-yl]-N-isobutyryl-methanesulfonamide] | 0
CCc1cc2[nH]c(=O)n(N(C(=O)C(C)C)S(C)(=O)=O)c(=O)c2cc1-c1ccnn1CC [N-[7-Ethyl-6-(2-ethyl-2H-pyrazol-3-yl)-2,4-dioxo-1,4-dihydro-2H-quinazolin-3-yl]-N-isobutyryl-methanesulfonamide] | 0
CCc1cc2[nH]c(=O)n(N(C(=O)C(C)C)S(C)(=O)=O)c(=O)c2cc1-c1ccnn1C [N-[7-Ethyl-6-(2-methyl-2H-pyrazol-3-yl)-2,4-dioxo-1,4-dihydro-2H-quinazolin-3-yl]-N-isobutyryl-methanesulfonamide] | 0
CC(C)CC(=O)N(n1c(=O)[nH]c2cc(C(C)C)c(-c3ccnn3C)cc2c1=O)S(C)(=O)=O [N-[7-Isopropyl-6-(2-methyl-2H-pyrazol-3-yl)-2,4-dioxo-1,4-dihydro-2H-quinazolin-3-yl]-N-(3-methyl-butyryl)-methanesulfonamide] | 0
CC(C)C(=O)N(n1c(=O)[nH]c2cc(C(F)(F)F)c([C@H]3CCCO3)cc2c1=O)S(C)(=O)=O [N—((R)-2,4-Dioxo-6-tetrahydro-furan-2-yl-7-trifluoromethyl-1,4-dihydro-2H-quinazolin-3-yl)-N-isobutyryl-methanesulfonamide] | 0
COC(=O)N(n1c(=O)[nH]c2cc(C(F)(F)F)c(-c3ccnn3C(C)C)cc2c1=O)S(C)(=O)=O [[6-(2-Isopropyl-2H-pyrazol-3-yl)-2,4-dioxo-7-trifluoromethyl-1,4-dihydro-2H-quinazolin-3-yl]-methanesulfonyl-carbamic acid methyl ester] | 0
CCCCOC(=O)N(n1c(=O)[nH]c2cc(C(F)F)c(-c3ccnn3CC)cc2c1=O)S(C)(=O)=O [[7-Difluoromethyl-6-(2-ethyl-2H-pyrazol-3-yl)-2,4-dioxo-1,4-dihydro-2H-quinazolin-3-yl]-methanesulfonyl-carbamic acid butyl ester] | 0
CCn1nccc1-c1cc2c(=O)n(N(C(=O)OC)S(C)(=O)=O)c(=O)[nH]c2cc1C(F)F [[7-Difluoromethyl-6-(2-ethyl-2H-pyrazol-3-yl)-2,4-dioxo-1,4-dihydro-2H-quinazolin-3-yl]-methanesulfonyl-carbamic acid methyl ester] | 0
CCCCOC(=O)N(n1c(=O)[nH]c2cc(C(F)F)c(-c3ccnn3C(C)C)cc2c1=O)S(C)(=O)=O [[7-Difluoromethyl-6-(2-isopropyl-2H-pyrazol-3-yl)-2,4-dioxo-1,4-dihydro-2H-quinazolin-3-yl]-methanesulfonyl-carbamic acid butyl ester] | 0
CC(C)COC(=O)N(n1c(=O)[nH]c2cc(C(F)F)c(-c3ccnn3C(C)C)cc2c1=O)S(C)(=O)=O [[7-Difluoromethyl-6-(2-isopropyl-2H-pyrazol-3-yl)-2,4-dioxo-1,4-dihydro-2H-quinazolin-3-yl]-methanesulfonyl-carbamic acid isobutyl ester] | 0
COC(=O)N(n1c(=O)[nH]c2cc(C(F)F)c(-c3ccnn3C(C)C)cc2c1=O)S(C)(=O)=O [[7-Difluoromethyl-6-(2-isopropyl-2H-pyrazol-3-yl)-2,4-dioxo-1,4-dihydro-2H-quinazolin-3-yl]-methanesulfonyl-carbamic acid methyl ester] | 0
